# Tests used:
# Plasmodium berghei [1] = experiment: Antimalarial activity against GFP-tagged Plasmodium berghei ANKA infected in NMRI mouse assessed as reduction in parasitemia at 30 mg/kg, po QD administered 24 hrs post infection for 3 days measured on day 4 post infection; type: functional; design: scale not given: the % may be the effect or the level left
# Plasmodium berghei [2] = experiment: Antimalarial activity against GFP-tagged Plasmodium berghei ANKA infected in NMRI mouse assessed as mouse survival at 100 mg/kg, po administered as single dose 24 hrs post infection measured on day 30 post infection
# Plasmodium berghei [3] = experiment: Antimalarial activity against GFP-tagged Plasmodium berghei ANKA infected in NMRI mouse assessed as mouse survival at 30 mg/kg, po administered as single dose 24 hrs post infection measured 72 hrs post infection
# Plasmodium berghei [4] = experiment: Antimalarial activity against GFP-tagged Plasmodium berghei ANKA infected in NMRI mouse assessed as mouse survival at 30 mg/kg, po QD administered 24 hrs post infection for 3 days measured on day 30 post infection; type: functional
# Plasmodium falciparum [5] = experiment: Antimalarial activity against Plasmodium falciparum W2 infected in human erythrocytes assessed as decrease in parasitemia after 72 hrs; type: functional, organism-based; settings: W2, 72 h
# Plasmodium falciparum [6] = experiment: Antimalarial activity against Plasmodium falciparum 3D7 infected in human erythrocytes assessed as decrease in parasitemia after 72 hrs; type: functional, organism-based; settings: 3D7, 72 h
# [7] = Cytotoxicity against human HuH7 cells; type: cell-based; settings: Huh-7 cells, read-out: TC50 (the source's name)
# [8] = Selectivity index, ratio TC50 for human HuH7 cells to IC50 for Plasmodium falciparum; type: functional, Huh-7
# [9] = Selectivity index, ratio TC50 for human HeLa cells to IC50 for Plasmodium falciparum; type: functional
# in vitro [10] = settings: human, Caco-2
# Description: Apparent permeability from apical to basolateral side in human Caco2 cells by LC/MS analysis
# [11] = Cmax in female CD1 mouse at 30 mg/kg, po by LC/MS/MS analysis; settings: in vivo
# [12] = Oral bioavailability in female CD1 mouse at 30 mg/kg by LC/MS/MS analysis; settings: female, CD1, mouse, in vivo
# [13] = Tmax in female CD1 mouse at 30 mg/kg, po by LC/MS/MS analysis; settings: in vivo
# in vivo [14] = settings: female, CD1, mouse, iv, 5 mg/kg
# Description: Clearance in female CD1 mouse at 5 mg/kg, iv by LC/MS/MS analysis
# in vivo [15] = settings: female, CD1, mouse, iv, 5 mg/kg; remark: listed apart in the source
# Description: Half-life in female CD1 mouse at 5 mg/kg, iv by LC/MS/MS analysis
# in vivo [16] = settings: female, CD1, mouse, plasma, po, 30 mg/kg
# [17] = pampa
# Description: Permeability of the compound assessed as amount of compound absorbed by PAMPA method
# in vivo [18] = settings: female, CD1, mouse, plasma, iv, 5 mg/kg
# in vivo [19] = settings: female, CD1, mouse, iv, 5 mg/kg; remark: listed apart in the source
# Description: Volume of distribution in female CD1 mouse at 5 mg/kg, iv by LC/MS/MS analysis
# in vivo [20] = settings: female, CD1, mouse, po, 30 mg/kg
# Description: Half life in female CD1 mouse at 20 mg/kg, po by LC/MS/MS analysis
# in vitro [21] = settings: human, Caco-2; remark: listed apart in the source
# Description: Apparent permeability from basolateral to apical side in human Caco2 cells by LC/MS analysis
# in vitro [22] = settings: mouse
# Description: Metabolic stability in mouse hepatic microsomes assessed as extraction ratio by LC/MS/MS analysis
# in vitro [23] = settings: rat
# Description: Metabolic stability in rat hepatic microsomes assessed as extraction ratio by LC/MS/MS analysis
# in vitro [24] = settings: human
# Description: Metabolic stability in human hepatic microsomes assessed as extraction ratio by LC/MS/MS analysis
# Plasmodium berghei [25] = experiment: Antimalarial activity against GFP-tagged Plasmodium berghei ANKA infected in NMRI mouse assessed as reduction in parasitemia at 30 mg/kg, po administered as single dose 24 hrs post infection measured 72 hrs post infection; type: functional; design: scale not given: the % may be the effect or the level left
# [26] = target: Voltage-gated inwardly rectifying potassium channel KCNH2 (Homo sapiens, UniProt Q12809)
# Chain of Voltage-gated inwardly rectifying potassium channel KCNH2 (Q12809 whole entry): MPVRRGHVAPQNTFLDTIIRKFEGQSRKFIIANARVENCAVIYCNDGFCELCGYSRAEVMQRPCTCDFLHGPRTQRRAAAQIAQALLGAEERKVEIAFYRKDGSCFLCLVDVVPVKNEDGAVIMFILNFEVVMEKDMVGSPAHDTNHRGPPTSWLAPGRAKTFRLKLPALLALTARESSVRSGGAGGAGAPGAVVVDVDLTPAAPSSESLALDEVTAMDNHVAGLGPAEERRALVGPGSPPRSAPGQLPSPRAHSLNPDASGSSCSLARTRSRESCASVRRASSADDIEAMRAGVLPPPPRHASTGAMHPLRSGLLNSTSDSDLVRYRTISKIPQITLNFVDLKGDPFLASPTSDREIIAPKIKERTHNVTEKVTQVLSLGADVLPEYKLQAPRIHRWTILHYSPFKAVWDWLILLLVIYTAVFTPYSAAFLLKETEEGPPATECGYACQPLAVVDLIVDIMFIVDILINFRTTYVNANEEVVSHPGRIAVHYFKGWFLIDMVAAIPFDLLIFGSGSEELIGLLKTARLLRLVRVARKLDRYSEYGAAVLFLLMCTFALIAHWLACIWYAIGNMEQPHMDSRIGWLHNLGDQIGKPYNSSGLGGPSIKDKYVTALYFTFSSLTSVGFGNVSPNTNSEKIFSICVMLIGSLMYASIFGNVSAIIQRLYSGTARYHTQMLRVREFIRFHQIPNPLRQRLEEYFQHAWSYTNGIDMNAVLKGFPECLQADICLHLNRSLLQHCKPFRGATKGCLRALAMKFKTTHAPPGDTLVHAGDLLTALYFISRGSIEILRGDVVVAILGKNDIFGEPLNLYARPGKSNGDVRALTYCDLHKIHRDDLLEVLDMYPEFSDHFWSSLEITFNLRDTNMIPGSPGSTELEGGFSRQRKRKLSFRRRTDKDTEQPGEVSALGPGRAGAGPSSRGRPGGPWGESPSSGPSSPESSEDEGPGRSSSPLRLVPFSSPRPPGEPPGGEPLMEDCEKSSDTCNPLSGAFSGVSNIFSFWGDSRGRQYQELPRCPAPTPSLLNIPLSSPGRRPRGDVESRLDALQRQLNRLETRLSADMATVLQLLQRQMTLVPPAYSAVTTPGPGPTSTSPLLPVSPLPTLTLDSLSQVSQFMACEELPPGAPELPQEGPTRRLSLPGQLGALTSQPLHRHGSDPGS
# Description: Inhibition of human ERG expressed in CHO cells by Q-patch assay
smiles,measurement,setting,value
CCN(CC)CCCC(C)Nc1ccnc2cc(Cl)ccc12 (centres undefined) [CHLOROQUINE],Activity,Plasmodium berghei [1],>99.9%
same,Survival,Plasmodium berghei [2],12 days
same,Survival,Plasmodium berghei [3],8.7 days
same,Survival,Plasmodium berghei [4],18.8 days
Fc1ccc(Nc2c(-c3ccc(F)cc3)nc3cnccn23)cc1,IC50,Plasmodium falciparum [5],5520 nM
same,IC50,Plasmodium falciparum [6],> 10 nM
CC(C)(N)C(=O)N1CCn2c(nc(-c3ccccc3)c2Nc2ccc(F)cc2)C1,IC50,Plasmodium falciparum [5],168 nM
same,IC50,Plasmodium falciparum [6],200 nM
NC(Cc1ccccc1)C(=O)N1CCn2c(nc(-c3ccccc3)c2Nc2ccc3c(c2)OCO3)C1 (racemic),IC50,Plasmodium falciparum [5],271 nM
same,IC50,Plasmodium falciparum [6],235 nM
same,CC50,[7],> 10000 nM
same,Selectivity Index,[8],>20
same,Selectivity Index,[9],>20
NCC(=O)N1CCn2c(nc(-c3ccc(F)cc3)c2Nc2ccc(F)cc2)C1,Papp A→B,in vitro [10],0.7 ×10⁻⁶ cm/s
same,Cmax,[11],234 nM
same,bioavailability,[12],15%
same,Tmax,[13],2 h
same,clearance,in vivo [14],189 mL/min/kg
same,half-life,in vivo [15],2.7 h
same,IC50,Plasmodium falciparum [5],23 nM
same,AUC(0-inf),in vivo [16],0.965 µM·h
same,permeability,[17],52%
same,IC50,Plasmodium falciparum [6],20 nM
same,AUC(0-inf),in vivo [18],1.07 µM·h
same,Vd,in vivo [19],12.3 L/kg
same,half-life,in vivo [20],4.2 h
COc1ccc(-c2nc3n(c2Nc2ccc(F)cc2)CCN(C(=O)CN)C3)cc1,IC50,Plasmodium falciparum [5],1700 nM
same,IC50,Plasmodium falciparum [6],2270 nM
NCC(=O)N1CCn2c(nc(-c3ccc(F)cc3)c2Nc2ccc(F)c(F)c2)C1,Papp A→B,in vitro [10],0.99 ×10⁻⁶ cm/s
same,Papp B→A,in vitro [21],2.99 ×10⁻⁶ cm/s
same,hepatic extraction ratio,in vitro [22]; liver microsomes,0.21
same,IC50,Plasmodium falciparum [5],23 nM
same,IC50,Plasmodium falciparum [6],30 nM
same,hepatic extraction ratio,in vitro [23]; liver microsomes,0.38
same,hepatic extraction ratio,in vitro [24]; liver microsomes,0.21
NCC(=O)N1CCn2c(nc(-c3ccc(F)cc3)c2Nc2ccc(Cl)cc2)C1,Papp A→B,in vitro [10],0.44 ×10⁻⁶ cm/s
same,Papp B→A,in vitro [21],1.25 ×10⁻⁶ cm/s
same,hepatic extraction ratio,in vitro [22]; liver microsomes,0.17
same,IC50,Plasmodium falciparum [5],9 nM
same,permeability,[17],52%
same,IC50,Plasmodium falciparum [6],10 nM
same,hepatic extraction ratio,in vitro [23]; liver microsomes,0.63
same,hepatic extraction ratio,in vitro [24]; liver microsomes,0.55
NCC(=O)N1CCn2c(nc(-c3cccc(F)c3)c2Nc2ccc(F)cc2)C1,Papp A→B,in vitro [10],0.56 ×10⁻⁶ cm/s
same,Activity,Plasmodium berghei [1],99.7%
same,Papp B→A,in vitro [21],2.32 ×10⁻⁶ cm/s
same,Survival,Plasmodium berghei [2],10 days
same,Cmax,[11],417 nM
same,bioavailability,[12],18%
same,Tmax,[13],2 h
same,hepatic extraction ratio,in vitro [22]; liver microsomes,0.31
same,clearance,in vivo [14],192 mL/min/kg
same,half-life,in vivo [15],1.8 h
same,Activity,Plasmodium berghei [25],86%
same,IC50,Plasmodium falciparum [5],30 nM
same,Survival,Plasmodium berghei [3],6 days
same,AUC(0-inf),in vivo [16],1.33 µM·h
same,IC50,[26],> 30000 nM
same,IC50,Plasmodium falciparum [6],10 nM
same,AUC(0-inf),in vivo [18],1.23 µM·h
same,Vd,in vivo [19],21.6 L/kg
same,half-life,in vivo [20],1 h
CC(C)(N)C(=O)N1CCn2c(nc(-c3ccc(F)cc3)c2Nc2ccc(F)cc2F)C1,IC50,Plasmodium falciparum [5],90 nM
same,IC50,Plasmodium falciparum [6],110 nM
Cc1ccc(Nc2c(-c3ccc(F)c(F)c3)nc3n2CCN(C(=O)C(C)(C)N)C3)cc1,IC50,Plasmodium falciparum [5],50 nM
same,IC50,Plasmodium falciparum [6],60 nM
N[C@@H](Cc1ccccc1)C(=O)N1CCn2c(nc(-c3ccc(F)cc3)c2Nc2ccc(F)cc2)C1,IC50,Plasmodium falciparum [5],121 nM
same,IC50,Plasmodium falciparum [6],110 nM
NCC(=O)N1CCn2c(nc(-c3ccc(F)cc3)c2Nc2cccc(F)c2)C1,IC50,Plasmodium falciparum [5],34 nM
same,IC50,Plasmodium falciparum [6],50 nM
C[C@@H]1CC[C@H]2[C@@H](C)C(=O)O[C@@H]3O[C@@]4(C)CC[C@@H]1[C@]32OO4 [ARTEMISININ],IC50,Plasmodium falciparum [6],12 nM
C[C@H](N)C(=O)N1CCn2c(nc(-c3ccc(F)cc3)c2Nc2ccc(F)cc2)C1,IC50,Plasmodium falciparum [5],64 nM
same,IC50,Plasmodium falciparum [6],90 nM
CC(C)(N)C(=O)N1CCn2c(nc(-c3ccc(F)cc3)c2Nc2cccnc2)C1,IC50,Plasmodium falciparum [5],3320 nM
same,IC50,Plasmodium falciparum [6],1410 nM
N[C@H](Cc1ccccc1)C(=O)N1CCn2c(nc(-c3ccc(F)cc3)c2Nc2ccc(F)cc2)C1,IC50,Plasmodium falciparum [5],59 nM
same,IC50,Plasmodium falciparum [6],70 nM
CC(C)[C@H](N)C(=O)N1CCn2c(nc(-c3ccc(F)cc3)c2Nc2ccc(F)cc2)C1,IC50,Plasmodium falciparum [5],24 nM
same,IC50,Plasmodium falciparum [6],30 nM
CC(C)CC(N)C(=O)N1CCn2c(nc(-c3ccccc3)c2Nc2ccc3c(c2)OCO3)C1 (racemic),IC50,Plasmodium falciparum [5],119 nM
same,IC50,Plasmodium falciparum [6],116 nM
same,CC50,[7],> 10000 nM
same,Selectivity Index,[8],>20
same,Selectivity Index,[9],>20
Cc1ccc(-c2nc3n(c2Nc2ccc(F)cc2)CCN(C(=O)CN)C3)cc1,IC50,Plasmodium falciparum [5],3360 nM
same,IC50,Plasmodium falciparum [6],3140 nM
NCCC(=O)N1CCn2c(nc(-c3ccc(F)cc3)c2Nc2ccc(F)cc2)C1,IC50,Plasmodium falciparum [5],75 nM
same,IC50,Plasmodium falciparum [6],70 nM
CC(C)(N)C(=O)N1CCn2c(nc(-c3ccccc3F)c2Nc2ccc(F)cc2)C1,IC50,Plasmodium falciparum [5],1280 nM
same,IC50,Plasmodium falciparum [6],1390 nM
Fc1ccc(Nc2c(-c3ccc(F)cc3)nc3n2CCNC3)cc1,IC50,Plasmodium falciparum [5],175 nM
same,IC50,Plasmodium falciparum [6],200 nM
C[C@H]1[C@H](OC(=O)CCC(=O)O)O[C@@H]2O[C@@]3(C)CC[C@H]4[C@H](C)CC[C@@H]1[C@@]24OO3 [ARTESUNATE],Activity,Plasmodium berghei [1],97%
same,Survival,Plasmodium berghei [2],6.7 days
same,Activity,Plasmodium berghei [25],89%
same,Survival,Plasmodium berghei [3],7.2 days
CC(C)(N)C(=O)N1CCn2c(nc(-c3ccc(F)cc3)c2NC2CCCCC2)C1,IC50,Plasmodium falciparum [5],5980 nM
same,IC50,Plasmodium falciparum [6],9610 nM
CC(C)(N)C(=O)N1CCn2c(nc(-c3ccc(F)cc3)c2Nc2cc(F)cc(F)c2)C1,IC50,Plasmodium falciparum [5],244 nM
same,IC50,Plasmodium falciparum [6],220 nM
CC(C)(N)C(=O)N1CCn2c(nc(-c3ccc(F)cc3)c2Nc2ccc(Cl)c(F)c2)C1,Papp A→B,in vitro [10],0.84 ×10⁻⁶ cm/s
same,Activity,Plasmodium berghei [1],99.8%
same,Papp B→A,in vitro [21],0.87 ×10⁻⁶ cm/s
same,Survival,Plasmodium berghei [2],11 days
same,Cmax,[11],3320 nM
same,bioavailability,[12],24%
same,Tmax,[13],2 h
same,hepatic extraction ratio,in vitro [22]; microsomes,0.76
same,clearance,in vivo [14],5.8 mL/min/kg
same,half-life,in vivo [15],7.8 h
same,IC50,Plasmodium falciparum [5],52 nM
same,Survival,Plasmodium berghei [3],7 days
same,AUC(0-inf),in vivo [16],36.7 µM·h
same,IC50,[26],5600 nM
same,permeability,[17],94%
same,IC50,Plasmodium falciparum [6],40 nM
same,AUC(0-inf),in vivo [18],25.5 µM·h
same,Vd,in vivo [19],1.7 L/kg
same,hepatic extraction ratio,in vitro [23]; microsomes,0.67
same,hepatic extraction ratio,in vitro [24]; microsomes,0.48
same,half-life,in vivo [20],9.1 h
NCC(=O)N1CCn2c(nc(-c3ccc(Cl)cc3)c2Nc2ccc(F)cc2)C1,IC50,Plasmodium falciparum [5],437 nM
same,IC50,Plasmodium falciparum [6],660 nM
CCc1nc(N)nc(N)c1-c1ccc(Cl)cc1 [PYRIMETHAMINE],IC50,Plasmodium falciparum [5],> 10000 nM
